Data published in US20240252660A1, “CARGO MOLECULE TRANSDUCTION DOMAIN RMMR1, VARIANT THEREOF, RECOMBINANT CARGO MOLECULE, AND METHOD FOR TRANSDUCING CARGO MOLECULE USING SAME” (REMEDI CO., LTD., priority 2021, published 2024).
Where no end group is shown, it is not given here.

Experiments:
Type in all cases: cell-based
[1] = test system: cells; test: FACS experiment to verify self-penetration efficacy of FITC peptides (summary statement); settings: FITC-labelled peptide, cells not specified
Description: The present inventors synthesized FITC and conducted a FACS experiment to verify its self-penetration efficacy using the cell-penetrating peptide RMMR1 derived from the human MRPL15 protein.

[2] = test system: B16F10 cells; test: RMMR1-FITC synthetic peptide cell penetration efficiency (fluorescence value) in B16F10; settings: 2.5 uM, 2 hours
Procedure: (§1) HaCaT, 3T3, and B16F10 cells were cultured in cell culture medium supplemented with 10% of fetal bovine serum (FBS) and antibiotic solution (100 units/ml of penicillin, 100 μg/ml of streptomycin) in DMEM medium. Cells were cultured under conditions maintained at 37° C., 95% humidity, and 5% CO2, and when the cells were 70-80% adhered to the culture dish, they were treated with trypsin-EDTA and subcultured. HaCaT cells were distributed and cultured from Professor Kim Tae Yoon of the College of Medicine, The Catholic University of Korea, 3T3 and B16F10 cells were distributed and cultured from the Seoul National University Cell Line Bank. RAW264.7 cells were distributed and cultured from the laboratory of Professor Kim Sang-Beom, College of Pharmacy, Sahmyook University.
(§2) In order to evaluate the cell permeability of RMMR1 in HaCaT, 3T3, B16F10 cells, 1×10^5 of HaCaT cells were attached to a 24-well plate 12 hours in advance. Thereafter, the cells were washed using serum-free DMEM medium and then treated with 2.5 uM of protein in serum-free medium for 2 hours. After 2 hours, the cells were washed a total of 3 times with serum-free medium, and then the cells were detached from the plate by treatment with 150 ul of trypsin, and then neutralized by adding 850 ul of serum-containing medium. […]

[3] = test system: 3T3 cells; test: RMMR1-FITC synthetic peptide cell penetration efficiency (fluorescence value) in 3T3; settings: 2.5 uM, 2 hours
Procedure: as §1, §2

[4] = test system: RAW264.7 cells; test: Antigen-presenting cell penetration efficiency of FITC-attached peptide; settings: 2.5 uM, 2 hours, FITC fluorescence
Procedure: as §1
In order to identify the penetration efficiency of RMMR1 into antigen-presenting cells, the transduction efficiency was confirmed using cell line RAW264.7 using a synthetic peptide attached with fluorescent FITC. In the case of cells without FITC attached, it is difficult to identify the permeability of the peptide, so attaching fluorescent FITC makes it easier to identify cell permeability. Each cell line was treated with FITC-attached peptides RMMR1-FITC (SEQ. NO. 1) and TAT-FITC at the same concentration of 2.5 uM for 2 hours.

| Substance | cell penetration compared with HIV-Tat peptide (FITC, FACS) [1] | cell penetration level compared with control TAT-FITC peptide [2] | cell penetration level compared with control TAT-FITC peptide [3] | level of cell penetration compared with control TAT-FITC peptide [4] |
| --- | --- | --- | --- | --- |
| ERRPRGRRRGRKC (listed as Homo sapiens) [RMMR1, 13 amino acid cargo molecule transduction domain derived from human MRPL15] | penetrated cells much better than the HIV-Tat peptide |  |  |  |
| RMMR1-FITC: RMMR1 (SEQ ID NO: 1) synthetic peptide attached with fluorescent FITC (ERRPRGRRRGRKC; also: FITC label, attachment site not given here; listed as Homo sapiens) |  | significantly higher cell penetration level than the control TAT-FITC peptide | significantly higher cell penetration level than the control TAT-FITC peptide | higher level of cell penetration compared to the control TAT-FITC peptide |
